Data on five molecules can be found in patent US12187712B2, “Cardiac sarcomere inhibitors” (Cytokinetics, Inc., priority 2018, dated 2025).

The subject of test [1] is adult cardiac ventricular rat myocytes. Kind of test: Adult ventricular myocyte contractility (fractional shortening). Type of test: cell-based, Sprague-Dawley rats. To be noted: 5 min perfusion, 5 cells tested. Here is the method: Adult male Sprague-Dawley rats were anesthetized and the hearts were quickly excised, rinsed and the ascending aorta was cannulated. Continuous retrograde perfusion was initiated on the hearts at a perfusion pressure of 60 cm H2O. Hearts were first perfused with a nominally Ca^2+-free modified Krebs solution of the following composition: 113 mM NaCl, 4.7 mM KCl, 0.6 mM KH2PO4, 0.6 mM Na2HPO4, 1.2 mM MgSO4, 12 mM NaHCO3, 10 mM KHCO3, 30 mM taurine, 5.5 mM glucose and 10 mM Hepes (all Sigma). This medium is not recirculated and is continually aerated with a 95% O2/5% CO2 mixture. After approximately 3 minutes, the heart was perfused with a modified Krebs buffer supplemented with collagenase (Worthington) and 12.5 μM final calcium concentration. The heart was removed from the cannulae after the heart appeared blanched and soft in appearance. The atria and vessels were removed, and the ventricles were gently dissected into smaller pieces with forceps. The tissue was homogenized by repeated pipette trituration, and the collagenase reaction was stopped by 10% bovine calf serum (BCS), sedimentation and resuspension in perfusion buffer containing 5% BCS and 12.5 uM CaCl2. Myocytes were made calcium tolerant by stepwise addition of a CaCl2 solution to a final concentration of 1.2 mM. Cells were then washed and resuspended in Tyrode's buffer (137 mM NaCl, 3.7 mM KCl, 0.5 mM MgCl, 11 mM glucose, 4 mM Hepes, and 1.2 mM CaCl2, pH 7.4). Cells were kept for 60 min at 37° C. prior to initiating experiments and used within 5 hrs of isolation. […] Additionally, only cells whose basal contractility was between 3 and 8% were used in subsequent experiments with compounds.
Aliquots of myocytes in Tyrode's buffer were placed in perfusion chambers (series 20 RC-27NE; Warner Instruments) complete with heating platforms. […] Contractility of the myocytes and contraction and relaxation velocities were then recorded using edge detection.
Five or more individual myocytes were tested per compound from two or more different myocyte preparations. […] These average transients were analyzed using the IonWizard software (IonOptix) to determine changes in diastolic length and fractional shortening. Fractional shortening was calculated as: ((resting length −length at peak contraction) divided by the resting length). The percent change in fractional shortening from baseline was calculated as: ((post-dose fractional shortening/basal fractional shortening)*100). The percent reduction in fractional shortening from baseline was calculated as: (100−percent change in fractional shortening from baseline). Maximum contraction and relaxation velocities (um/sec) was also determined. Results from individual cells were averaged and the SEM was calculated.

Test [2] addresses T1, bovine cardiac myofibrils (Bos taurus, UniProt Q9BE39).
T1 construct: full-length cardiac myosin in the context of the native sarcomere, skinned myofibril assays were performed; from tissue; host or cells: bovine cardiac left ventricular tissue, detergent-skinned (Triton X-100) myofibrils
Kind of test: Skinned myofibril ATPase assay (PK/LDH-coupled), CDMF75. It is filed as biochemical. To be noted: inhibition of steady-state ATPase activity of bovine cardiac myofibrils at 75% Ca2+ activation (pCa75). On the procedure:
To evaluate the effect of compounds on the ATPase activity of full-length cardiac myosin in the context of the native sarcomere, skinned myofibril assays were performed. Bovine cardiac myofibrils were obtained by homogenizing bovine cardiac left ventricular tissue in the presence of a detergent such as triton X-100. Such treatment removes membranes and a majority of the soluble cytoplasmic proteins but leaves intact the cardiac sarcomeric acto-myosin apparatus. Myofibril preparations retain the ability to hydrolyze ATP in an Ca^2+ regulated manner. ATPase activities of such myofibril preparations in the presence and absence of compounds were assayed at Ca^2+ concentrations activating to a defined fraction of the maximal rate (i.e., 25%, 75%). Small molecule agents were assessed for their ability to inhibit the steady-state ATPase activity of bovine cardiac myofibrils using pyruvate kinase and lactate dehydrogenase (PK/LDH)-coupled enzyme system. This assay regenerates myosin-produced ADP into ATP by oxidizing NADH, producing an absorbance change at 340 nm. Prior to testing small molecule agents, the bovine cardiac myofibrils were assessed for their calcium responsiveness and the calcium concentration that achieves either a 50% (pCa50) or 75% (pCa75) activation of the myofibril system was chosen as the final condition for assessing the inhibitory activity of the small molecule agents. All enzymatic activity was measured in a buffered solution containing 12 mM PIPES (piperazine-N,N′-bis(2-ethanesulfonic acid), 2 mM magnesium chloride at pH 6.8 (PM 12 buffer). Final assay conditions were 1 mg/mL of bovine cardiac myofibrils, 4 U/mL pyruvate kinase, 6 U/mL lactate dehydrogenase, 50 μM ATP, 0.1 mg/mL BSA (bovine serum albumin), 10 ppm antifoam, 1 mM DTT, 0.5 mM NADH, 1.5 mM PEP, 0.6 mM EGTA, and an amount of CaCl2 sufficient to achieve either 50% or 75% activation of the myofibril ATPase activity. Results for compounds tested are provided in Table A. Compounds tested were prepared in accordance with the synthetic procedures described herein.

In test [3] the test system is rat cardiac contractility. Kind of test: Echocardiography assessment of acute pharmacodynamic effect in rat cardiac contractility (continuous IV infusion). It is filed as in vivo, Sprague Dawley rats. The settings on record: estimated plasma concentration for 20% relative reduction in cardiac fractional shortening, loading + maintenance IV dose 0.5 + 1.5 mg/kg, isoflurane anesthesia. Here is the method: Echocardiography assessment of acute pharmacodynamic effect in rat cardiac contractility.
Assessment of in vivo cardiac function by echocardiography was performed in male Sprague Dawley rats under isoflurane (1-3%) anesthesia. 2-D M-mode images of the left ventricle were acquired in the parasternal long-axis view before and during administration of compounds by continuous IV infusion. In vivo fractional shortening was determined by M-mode image analysis with the following calculation: ((End diastolic diameter−end systolic diameter)/end diastolic diameter×100). For continuous IV infusion experiments, three pre-dose baseline M-mode images were taken at 1 minute intervals prior to infusion of compound. Compounds were formulated in 50% Propylene Glycol (PG): 16% Cavitron: 10% dimethylacetamide (DMA) and delivered via a jugular vein catheter at the rate of 1 mL/kg/h. An estimated loading and maintenance IV infusion dose was administered to establish a steady state plasma concentration that produced a sustained, 20% relative reduction in cardiac fractional shortening for 60 minutes. During infusion, M-mode images were taken at 5 minute intervals for 60 minutes. Blood samples were taken to determine the plasma concentration of the compounds. Data were reported as an estimated IC20 value, which is the concentration at which fractional shortening is […]. […]

Structures are written as SMILES. pIC50: −log10 of the molar value. Bounds are passed on as bounds.

T1 sequence (Q9BE39 whole entry): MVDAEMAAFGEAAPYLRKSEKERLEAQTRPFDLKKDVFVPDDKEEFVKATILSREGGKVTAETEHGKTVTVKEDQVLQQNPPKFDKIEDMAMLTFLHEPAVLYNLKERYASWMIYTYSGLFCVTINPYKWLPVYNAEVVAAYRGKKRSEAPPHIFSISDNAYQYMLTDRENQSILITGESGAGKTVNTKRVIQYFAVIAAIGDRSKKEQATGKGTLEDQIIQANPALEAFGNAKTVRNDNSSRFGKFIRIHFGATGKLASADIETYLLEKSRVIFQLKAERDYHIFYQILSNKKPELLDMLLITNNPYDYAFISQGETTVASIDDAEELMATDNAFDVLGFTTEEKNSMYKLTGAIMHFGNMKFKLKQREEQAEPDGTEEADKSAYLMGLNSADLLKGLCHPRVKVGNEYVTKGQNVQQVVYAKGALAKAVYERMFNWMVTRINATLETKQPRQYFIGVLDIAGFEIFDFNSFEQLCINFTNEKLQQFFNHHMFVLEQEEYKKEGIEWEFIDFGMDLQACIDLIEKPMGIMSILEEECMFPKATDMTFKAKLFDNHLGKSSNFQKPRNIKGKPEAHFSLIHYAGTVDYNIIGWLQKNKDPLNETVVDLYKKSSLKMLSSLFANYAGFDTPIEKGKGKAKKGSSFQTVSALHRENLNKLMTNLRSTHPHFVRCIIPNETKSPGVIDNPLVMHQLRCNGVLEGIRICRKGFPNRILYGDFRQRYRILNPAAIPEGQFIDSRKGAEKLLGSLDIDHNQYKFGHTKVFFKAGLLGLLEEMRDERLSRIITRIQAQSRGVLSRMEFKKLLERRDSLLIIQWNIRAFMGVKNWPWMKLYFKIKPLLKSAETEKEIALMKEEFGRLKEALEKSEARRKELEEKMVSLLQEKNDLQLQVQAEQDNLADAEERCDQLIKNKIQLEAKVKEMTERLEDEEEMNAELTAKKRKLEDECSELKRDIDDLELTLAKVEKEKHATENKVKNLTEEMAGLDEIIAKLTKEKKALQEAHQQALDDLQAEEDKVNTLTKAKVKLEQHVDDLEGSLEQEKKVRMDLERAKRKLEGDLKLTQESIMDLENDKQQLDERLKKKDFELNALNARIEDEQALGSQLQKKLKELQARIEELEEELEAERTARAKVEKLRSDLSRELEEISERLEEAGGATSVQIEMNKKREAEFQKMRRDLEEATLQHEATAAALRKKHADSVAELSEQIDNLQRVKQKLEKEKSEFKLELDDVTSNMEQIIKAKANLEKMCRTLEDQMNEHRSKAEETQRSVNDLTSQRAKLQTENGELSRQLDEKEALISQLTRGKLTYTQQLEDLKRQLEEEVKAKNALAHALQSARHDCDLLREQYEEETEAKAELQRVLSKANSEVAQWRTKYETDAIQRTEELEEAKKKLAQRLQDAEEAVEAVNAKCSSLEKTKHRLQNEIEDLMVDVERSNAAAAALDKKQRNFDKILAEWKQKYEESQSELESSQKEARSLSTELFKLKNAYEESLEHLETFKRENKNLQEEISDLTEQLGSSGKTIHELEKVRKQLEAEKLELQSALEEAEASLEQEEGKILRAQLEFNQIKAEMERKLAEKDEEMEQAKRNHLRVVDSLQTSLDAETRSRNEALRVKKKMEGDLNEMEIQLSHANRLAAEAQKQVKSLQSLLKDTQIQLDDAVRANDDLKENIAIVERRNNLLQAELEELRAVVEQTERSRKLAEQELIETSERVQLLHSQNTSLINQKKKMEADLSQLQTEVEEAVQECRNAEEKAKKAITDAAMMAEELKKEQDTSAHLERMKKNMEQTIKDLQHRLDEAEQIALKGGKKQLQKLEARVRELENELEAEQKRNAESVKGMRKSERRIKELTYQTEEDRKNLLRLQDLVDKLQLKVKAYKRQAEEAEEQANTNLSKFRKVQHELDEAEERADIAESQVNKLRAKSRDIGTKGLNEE
T1 sequence (P85100 whole entry partner): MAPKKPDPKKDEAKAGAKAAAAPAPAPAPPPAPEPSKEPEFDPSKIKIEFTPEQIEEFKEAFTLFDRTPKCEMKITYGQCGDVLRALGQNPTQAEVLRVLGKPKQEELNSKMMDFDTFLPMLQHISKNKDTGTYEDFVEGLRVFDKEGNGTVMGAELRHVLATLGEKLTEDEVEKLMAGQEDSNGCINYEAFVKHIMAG
T1 sequence (Q3SZE5 whole entry partner): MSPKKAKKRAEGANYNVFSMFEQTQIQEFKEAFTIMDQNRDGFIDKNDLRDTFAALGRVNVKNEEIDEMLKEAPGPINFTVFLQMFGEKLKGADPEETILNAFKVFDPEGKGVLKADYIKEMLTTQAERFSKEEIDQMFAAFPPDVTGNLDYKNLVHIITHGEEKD

Take `Cc1nc(-c2ccc(CNc3cc(C(N)=O)ccn3)cc2)no1` [Compound 19, 2-((4-(5-methyl-1,2,4-oxadiazol-3-yl)benzyl)amino) isonicotinamide]: the “% FS (% reduction from baseline) ± SEM” value in test [1] (concentration 10 μM) was 14.4 ± 3.4%. In test [2], the “CDMF75 IC15” value is 1200 nM and the pIC50 was 5.37.

On to `Cc1nc(-c2ccc([C@@H](C)Nc3cnccn3)cc2)no1` [Compound 28, (R)-N-(1-(4-(5-methyl-1,2,4-oxadiazol-3-yl)phenyl)ethyl)pyrazin-2-amine], for which the “% FS (% reduction from baseline) ± SEM” value in test [1] (concentration 5 μM) amounted to 43.6 ± 9.3%. Further, in test [2], the “CDMF75 IC15” value amounted to 600 nM and the pIC50 is 5.59. Further, the IC20 at 1.5 mg/kg in test [3] is 800 nM.

`C[C@@H](Nc1cnccn1)c1ccc(-c2noc(C(F)(F)F)n2)cc1` [Compound 34, (R)-N-(1-(4-(5-(trifluoromethyl)-1,2,4-oxadiazol-3-yl)phenyl)ethyl)pyrazin-2-amine]: the “% FS (% reduction from baseline) ± SEM” value in test [1] (concentration 5 μM) is reported as 30.7 ± 5.0%. In test [2], the “CDMF75 IC15” value amounted to 500 nM and the pIC50 is 5.64.

Regarding `Cc1cc(-c2ccc(CNc3cnccn3)cc2)no1` [Compound 52, N-(4-(5-methylisoxazol-3-yl)benzyl)pyrazin-2-amine], in test [1] (concentration 1 μM), the “% FS (% reduction from baseline) ± SEM” value is listed as 17.4 ± 6.8%. Moreover, in test [2], the “CDMF75 IC15” value came out at 200 nM and the pIC50 is 6.00.

As to `COc1cccc(NCc2ccc(-c3cc(C)on3)cc2)n1` [Compound 71, 6-methoxy-N-[[4-(5-methyl-1,2-oxazol-3-yl)phenyl]methyl]pyridin-2-amine], in test [2], the “CDMF75 IC15” value was greater than 39200 nM and the pIC50 was less than 4.41.

As a reminder, the pIC50 is the negative decadic logarithm of the IC50, by convention in mol/L. Lower therefore signals a large IC50. As usually defined, the IC20 is the point of the concentration-response curve where the effect stands at 20%.
